Laboratory results reported in patent US20160304552A1, “MODIFIED NUCLEIC ACID MOLECULES AND USES THEREOF” (MODERNA THERAPEUTICS, INC., priority 2013, published 2016).

Assays:
T7 RNA polymerase = T7 RNA polymerase (Escherichia phage T7, UniProt P00573); assay: In vitro transcription yields of modified mRNA; type: biochemical; conditions: for EPO In Vitro Transcription yield: EPO mRNA made with the modified NTP(s); for GCSF In Vitro Transcription yield: GCSF mRNA made with the modified NTP(s); for Luc In Vitro Transcription yield: Luciferase mRNA made with the modified NTP(s)
T7 RNA polymerase, sequence (P00573 whole entry): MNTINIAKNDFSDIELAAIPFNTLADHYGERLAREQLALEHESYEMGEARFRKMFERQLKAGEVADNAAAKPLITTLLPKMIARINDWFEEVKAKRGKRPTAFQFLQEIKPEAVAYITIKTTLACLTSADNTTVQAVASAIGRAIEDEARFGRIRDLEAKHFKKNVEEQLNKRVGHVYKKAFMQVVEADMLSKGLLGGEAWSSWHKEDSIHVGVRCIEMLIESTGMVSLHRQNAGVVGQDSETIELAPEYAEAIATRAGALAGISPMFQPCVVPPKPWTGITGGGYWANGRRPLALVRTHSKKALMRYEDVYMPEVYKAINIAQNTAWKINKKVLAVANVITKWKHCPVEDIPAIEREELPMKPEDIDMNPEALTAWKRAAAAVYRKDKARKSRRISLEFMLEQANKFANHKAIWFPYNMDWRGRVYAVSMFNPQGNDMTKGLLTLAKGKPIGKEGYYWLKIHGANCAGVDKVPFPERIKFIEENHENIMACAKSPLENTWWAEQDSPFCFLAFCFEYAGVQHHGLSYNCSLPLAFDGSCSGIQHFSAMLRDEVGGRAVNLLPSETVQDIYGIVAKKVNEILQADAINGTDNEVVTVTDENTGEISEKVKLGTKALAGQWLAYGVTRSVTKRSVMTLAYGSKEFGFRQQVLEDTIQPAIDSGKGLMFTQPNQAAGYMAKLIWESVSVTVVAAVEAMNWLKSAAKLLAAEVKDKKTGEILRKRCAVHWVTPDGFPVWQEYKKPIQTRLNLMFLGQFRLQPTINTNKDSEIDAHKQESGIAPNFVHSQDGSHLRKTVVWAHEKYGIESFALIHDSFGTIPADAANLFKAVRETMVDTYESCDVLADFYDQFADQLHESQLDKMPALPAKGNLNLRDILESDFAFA

HeLa cells [1] = assay: Transfection in HeLa cells, human GCSF modRNA (GCSF ELISA of supernatant); type: cell-based; conditions: Table 22, 250 ng modRNA, 18 h to 22 h
Description: (§1) The day before transfection, 20.000 HeLa cells (ATCC no. CCL-2; Manassas, Va.) were harvested by treatment with Trypsin-EDTA solution (LifeTechnologies, Grand Island, N.Y.) and seeded in a total volume of 100 ul EMEM medium (supplemented with 10% FCS and 1× Glutamax) per well in a 96-well cell culture plate (Corning, Manassas, Va.). The cells were grown at 37° C. in 5% CO2 atmosphere overnight. Next day, 83 ng of Luciferase modRNA or 250 ng of human GCSF modRNA, harboring chemical modifications on the bases or the ribose units, were diluted in 10 ul final volume of OPTI-MEM (LifeTechnologies, Grand Island, N.Y.). Lipofectamine 2000 (LifeTechnologies, Grand Island, N.Y.) was used as transfection reagent and 0.2 μl were diluted in 10 ul final volume of OPTI-MEM. After 5 min incubation at room temperature, both solutions were combined and incubated additional 15 min at room temperature. Then the 20 μl were added to the 100 ul cell culture medium containing the HeLa cells. The plates were then incubated as described before.
(§2) After 18 h to 22 h incubation, cell culture supernatants of cells expressing human GCSF or human EPO were collected and centrifuged at 10.000 rcf for 2 min. The cleared supernatants were transferred and analyzed with a human GCSF-specific or EPO ELISA kit (both from R&D Systems, Minneapolis, Minn.; Cat. #s SCS50, DEP00, respectively) according to the manufacturer instructions. All samples were diluted until the determined values were within the linear range of the human GCSF or EPO ELISA standard curve.

HeLa cells [2] = assay: Transfection in HeLa cells, Luciferase modRNA (luciferase assay, relative light units); type: cell-based, human; conditions: Table 22, 83 ng modRNA, Lipofectamine 2000, 18 h to 22 h
Description: as §1
After 18 h to 22 h incubation, cells expressing luciferase were lysed with 100 μl Passive Lysis Buffer (Promega, Madison, Wis.) according to manufacturer instructions. Aliquots of the lysates were transferred to white opaque polystyrene 96-well plates (Corning, Manassas, Va.) and combined with 100 ul complete luciferase assay solution (Promega, Madison, Wis.). The lysate volumes were adjusted or diluted until no more than 2 mio relative light units per well were detected for the strongest signal producing samples. […] The plate reader was a BioTek Synergy H1 (BioTek, Winooski, Vt.).

[3] = test system: Rabbit Reticulocyte Lysate; assay: In vitro translation screen, human GCSF modRNA (GCSF ELISA); type: biochemical; conditions: Table 20; 250 ng modRNA, 45 min, 30° C.
Description: (§3) The in vitro translation assay was done with the Rabbit Reticulocyte Lysate (nuclease-treated) kit (Promega, Madison, Wis.; Cat. #L4960) according to the manufacturer's instructions. The reaction buffer was a mixture of equal amounts of the amino acid stock solutions devoid of Leucine or Methionine provided in the kit.
(§4) The modRNAs of firefly Luciferase, human GCSF and human EPO, harboring chemical modifications on either the bases or the ribose units, were diluted in sterile nuclease-free water to a final concentration of 250 ng in 2.5 ul (Stock 100 ng/μl). The modRNA (250 ng) was added to the mixture of freshly prepared Rabbit Reticulocyte Lysate and reaction buffer.
(§5) Aliquots of the in vitro translation reaction containing human GCSF modRNA or human EPO mRNA were transferred and analyzed with a human GCSF-specific or EPO ELISA kit (both from R&D Systems, Minneapolis, Minn.; Cat. #s SCS50, DEP00 respectively) according to the manufacturer instructions. All samples were diluted until the determined values were within the linear range of the human GCSF or EPO ELISA standard curve.

[4] = test system: Rabbit Reticulocyte Lysate; assay: In vitro translation screen, firefly Luciferase modRNA (luciferase assay, relative light units); type: biochemical; conditions: Table 20; 250 ng modRNA, 45 min, 30° C.
Description: as §3, §4
After 45 min incubation, the reaction was stopped by placing the plate on ice. Aliquots of the in vitro translation reaction containing luciferase modRNA were transferred to white opaque polystyrene 96-well plates (Corning, Manassas, Va.; Cat. # CLS3912) and combined with 100 ul complete luciferase assay solution (Promega, Madison, Wis.). The volumes of the in vitro translation reactions were adjusted or diluted until no more than 2 million relative light units per well were detected for the strongest signal producing samples. […] The plate reader was a BioTek Synergy H1 (BioTek, Winooski, Vt.).

HeLa cells [5] = assay: Transfection in HeLa cells, human EPO modRNA (EPO ELISA of supernatant); type: cell-based; conditions: Table 22, 18 h to 22 h
Description: as §1, §2

[6] = test system: Rabbit Reticulocyte Lysate; assay: In vitro translation screen, human EPO modRNA (EPO ELISA); type: biochemical; conditions: Table 20; 250 ng modRNA, 45 min, 30° C.
Description: as §3, §4, §5

human PBMC = assay: PBMC cytokine assay, interferon-alpha production (IFN-alpha multi-subtype ELISA); type: cell-based
Description: 50 mL of human blood from three donors was received from Research Blood Components (Brighton, Mass.) in sodium heparin tubes. […] The tubes were centrifuged at 2000 rpm for 30 minutes with low acceleration and braking (Thermo, Waltham, Mass., 75004506). The tubes were removed and the buffy coat PBMC layers were gently transferred to a fresh 50 mL conical and washed with DPBS. The tubes were centrifuged at 1450 rpm for 10 minutes. The supernatant was aspirated and the PBMC pellets were resuspended and washed in 50 mL of DPBS. The tubes were centrifuged at 1450 rpm for 10 minutes. […] The cell suspensions were adjusted to a concentration of 3.0×10^6 cells/mL live cells. […] Within 30 minutes, transfection mixtures were added to each well at a volume of 50 μL per well. […] The transfection mixtures were then transferred to each of the human PBMC plates at 50 μL per well (6 wells per mRNA sample). The plates were then incubated at 37° C. […] In order to harvest the supernatant, plates were centrifuged at 1450 rpm for 5 min in a swinging plate rotor. The supernatant of 6 wells transfected with the same mRNA was carefully harvested and pooled in a single well of a fresh 96-well plate. Supernatants were either frozen or used fresh until ELISA analysis was done. The ability of unmodified and modified mRNA to trigger innate immune recognition as measured by interferon-alpha production.

Structure (SMILES) | EPO In Vitro Transcription yield (T7 RNA polymerase) | GCSF In Vitro Transcription yield (T7 RNA polymerase) | Luc In Vitro Transcription yield (T7 RNA polymerase) | GCSF Expression (HeLa cells [1]) | Luc Expression (RLUs) (HeLa cells [2]) | GCSF Expression [3] | Luc Expression (RLUs) [4] | Epo Expression (HeLa cells [5]) | Epo Expression [6] | interferon-alpha concentration in PBMC supernatant (human PBMC; Luc mRNA, 1st value in cell) | interferon-alpha concentration in PBMC supernatant (human PBMC; Luc mRNA, 2nd value in cell) | interferon-alpha concentration in PBMC supernatant (human PBMC; Luc mRNA, 3rd value in cell) | interferon-alpha concentration in PBMC supernatant (human PBMC; hEPO mRNA, 1st value in cell) | interferon-alpha concentration in PBMC supernatant (human PBMC; hEPO mRNA, 2nd value in cell) | interferon-alpha concentration in PBMC supernatant (human PBMC; hEPO mRNA, 3rd value in cell) | interferon-alpha concentration in PBMC supernatant (human PBMC; hGCSF mRNA, 1st value in cell) | interferon-alpha concentration in PBMC supernatant (human PBMC; hGCSF mRNA, 2nd value in cell) | interferon-alpha concentration in PBMC supernatant (human PBMC; hGCSF mRNA, 3rd value in cell) | Luc (3 Donor samples) (human PBMC; Luc mRNA, 1st value in cell) | Luc (3 Donor samples) (human PBMC; Luc mRNA, 2nd value in cell) | other results
Nc1nc(=O)n([C@@H]2O[C@H](COP(=O)(O)OP(=O)(O)OP(=O)(O)O)C(O)C2O)cc1CO (stereo in doubt) [00901014005 (350), 5-Hydroxymethyl-CTP] | 0.7778 mg | 0.6391 mg | 0.4073 mg | 1151000 pg/mL | 22160 RLUs | 26600 pg/mL | 154000 RLUs | 440300 pg/mL | 9425 pg/mL | 7130 pg/mL | 3680 pg/mL | 8990 pg/mL | 4960 pg/mL | 3100 pg/mL | 2412.5 pg/mL | 6575 pg/mL | 5800 pg/mL | 8180 pg/mL | – | – | –
O=c1[nH]c(=S)[nH]cc1[C@@H]1O[C@H](COP(=O)(O)OP(=O)(O)OP(=O)(O)O)C(O)C1O (stereo in doubt) [00901015006 (193), 2-Thio-pseudo-UTP] | 1.081 mg | 0.5207 mg | 0.6123 mg | 239300 pg/mL | 1999 RLUs | 5988 pg/mL | 2198 RLUs | 380600 pg/mL | 12310 pg/mL | 530 pg/mL | 1180 pg/mL | 1400 pg/mL | -210 pg/mL | 675 pg/mL | 362.5 pg/mL | 358.33 pg/mL | 166.66 pg/mL | 490 pg/mL | – | – | –
O=c1[nH]cc([C@@H]2O[C@H](COP(O)(=S)OP(=O)(O)OP(=O)(O)O)C(O)C2O)c(=O)[nH]1 (stereo in doubt) [00902015001 (194), PseudoU-alpha-thio-TP] | 0.8632 mg | 0.5522 mg | 0.6479 mg | 320000 pg/mL | 2015 RLUs | 7763 pg/mL | 5221 RLUs | 302800 pg/mL | 2669 pg/mL | – | – | – | – | – | – | – | – | – | 20 pg/mL | 170 pg/mL | Luc (3 Donor samples) (human PBMC; Luc mRNA, 3rd value in cell): -90 pg/mL; hEPO (3 Donor samples) (human PBMC; hEPO mRNA, 1st value in cell): -190 pg/mL; hEPO (3 Donor samples) (human PBMC; hEPO mRNA, 2nd value in cell): 75 pg/mL; hEPO (3 Donor samples) (human PBMC; hEPO mRNA, 3rd value in cell): 400 pg/mL; hGCSF (3 Donor samples) (human PBMC; hGCSF mRNA, 1st value in cell): 50 pg/mL; hGCSF (3 Donor samples) (human PBMC; hGCSF mRNA, 2nd value in cell): 508.33 pg/mL; hGCSF (3 Donor samples) (human PBMC; hGCSF mRNA, 3rd value in cell): 640 pg/mL
Cn1cc([C@@H]2O[C@H](COP(O)(=S)OP(=O)(O)OP(=O)(O)O)C(O)C2O)c(=O)[nH]c1=O (stereo in doubt) [00902015002 (195), 1-Methyl-pseudo-U-alpha-thio-TP] | 0.7679 mg | 0.6582 mg | 0.6011 mg | 372100 pg/mL | 4900 RLUs | 4244 pg/mL | 1201 RLUs | 348600 pg/mL | 1694 pg/mL | – | – | – | – | – | – | – | – | – | 180 pg/mL | 500 pg/mL | Luc (3 Donor samples) (human PBMC; Luc mRNA, 3rd value in cell): 180 pg/mL; hEPO (3 Donor samples) (human PBMC; hEPO mRNA, 1st value in cell): -290 pg/mL; hEPO (3 Donor samples) (human PBMC; hEPO mRNA, 2nd value in cell): 512.5 pg/mL; hEPO (3 Donor samples) (human PBMC; hEPO mRNA, 3rd value in cell): 475 pg/mL; hGCSF (3 Donor samples) (human PBMC; hGCSF mRNA, 1st value in cell): 425 pg/mL; hGCSF (3 Donor samples) (human PBMC; hGCSF mRNA, 2nd value in cell): 916.66 pg/mL; hGCSF (3 Donor samples) (human PBMC; hGCSF mRNA, 3rd value in cell): 1250 pg/mL
